The text below walks through data of patent US20190336583A1, “COMPOSITIONS AND METHODS FOR TREATING IRON OVERLOAD” (priority 2017, published 2019).

The structures appear in SMILES notation.

Data set [1] can be described thus: Expanded acute toxicity study (NOAEL), single subcutaneous dose in dogs (Example 4). The note with it: dog, in vivo. The protocol: (§1) Hepcidin was evaluated in two expanded, acute studies in rats and dogs. These studies were conducted to determine the no-observed adverse effect level (NOAEL). The NOAEL was determined to be 5 mg/kg/day in dogs due to various clinical and histopathological observations.

The test system of data set [2] is serum iron levels. Briefly: Effect of 1, 5, 10 and 50 mg subcutaneous hepcidin on serum iron levels in normal rats (Example 3). The data set is classed as in vivo.
Description: A study was designed to evaluate doses of 1, 5, 10, and 50 mg of hepcidin delivered subcutaneously and their effect on serum iron levels in normal rats (n=7/group).
A short description of data set [3]: Expanded acute toxicity study (NOAEL) in Sprague Dawley rats (Example 4). The following applies: rat, in vivo. On the procedure: as §1
Data set [4] has as its system serum iron levels. Briefly: Effect of subcutaneous hepcidin on serum iron levels in mice (Example 1). The note with it: 50 μg dose subcutaneously, p<0.05. The class given is in vivo. The text has this:
A study was designed to evaluate the effect of subcutaneous doses of hepcidin on serum iron levels in mice (n=6-7/group).

The conditions of data set [5]: normal rats, any dose level.
Data set [6] deals with serum iron levels. Nature of the data set: Serum iron levels in expanded acute study in Sprague Dawley rats (Example 4).
Description: A study was designed to evaluate doses of 5, 25, and 50 mg/kg of hepcidin (human equivalent dose of 0.8, 4, 8 mg/kg, respectively), delivered SC to Sprague Dawley rats (n=9/sex/group).
Data set [7] concerns serum iron levels. Nature of the data set: Effect of 50, 100 and 200 μg subcutaneous hepcidin on serum iron levels in mice (Example 2). The following applies: for serum iron levels compared to vehicle: p<0.01. The class given is in vivo. The protocol:
Conversely, 50 μg and 100 μg doses were elevated (p<0.01) compared to the vehicle at 24 hours post dose. The elevated levels of serum iron could be due to the system's reaction to the clearance of hepcidin. […] Mortality was likely related to the stress of the blood collection. Serum iron levels normalized 72 hours post dose.

As to `CC[C@H](C)[C@@H]1NC(=O)[C@@H](NC(=O)[C@@H](NC(=O)[C@@H]2CCCN2C(=O)[C@H](Cc2ccccc2)NC(=O)[C@H](Cc2c[nH]cn2)NC(=O)[C@@H](NC(=O)[C@@H](N)CC(=O)O)[C@@H](C)O)[C@@H](C)CC)CSSC[C@@H](C(=O)N[C@@H](CCCCN)C(=O)N[C@H](C(=O)O)[C@@H](C)O)NC(=O)[C@@H]2CSSC[C@@H]3NC(=O)[C@@H]4CSSC[C@H](NC(=O)[C@H](Cc5ccccc5)NC1=O)C(=O)N[C@@H](CSSC[C@H](NC(=O)[C@H](CCCCN)NC(=O)[C@H](CO)NC(=O)[C@H](CCCNC(=N)N)NC(=O)[C@H](Cc1c[nH]cn1)NC3=O)C(=O)NCC(=O)N[C@@H](CCSC)C(=O)N2)C(=O)NCC(=O)N4` [hepcidin], in data set [1], the “administration site microscopic findings, Day 15: cystic space” value is reported as “cystic space”. Further, the “administration site microscopic findings, Day 15: fibrosis” value in data set [1] is “fibrosis”. In data set [1], the other adverse reactions entry was “hunched posture, soft feces, gross pathology finding of “thick,” and subcutaneous fibrosis, mixed cell infiltration, and cysts present at recovery period”. In addition, the “administration site microscopic findings, Day 4” value in data set [1] (25 mg/kg) is on record as “mixed cell infiltration in the administration site”. Besides, the “time at which serum iron levels returned to pre-dose levels” value in the data set with serum iron levels [2] (normal rats, 5 mg dose, post dose) worked out at 48 h. For the same compound, in the data set on serum iron levels [2] (normal rats, 10 mg and 50 mg dose groups, 72 hours post dose), the “return of serum iron levels to pre-dose levels” value was “did not return to pre-dose levels”. Besides, the “effect on serum iron levels” value in the data set with serum iron levels [2] (normal rats, 50 mg, at 72 hours) is recorded as “still demonstrated an effect”. Besides, the serum iron levels result in the data set with serum iron levels [2] (normal rats, 1, 5, 10 and 50 mg subcutaneously, all dose levels) is reported as “significant decrease in serum iron levels”; in the data set with serum iron levels [7] (mice, 72 hours post dose) it was “normalized”. For the same compound, in the data set with serum iron levels [2] (normal rats, post dose, all three doses), the “time of lowest serum iron concentrations” value is 4 h. The “toxicokinetic (TK) effect, male vs female” value in data set [3] is “comparable for both sexes”. Moreover, the “decrease in serum iron levels compared to vehicle (average)” value stood at 40% with serum iron levels [4] (4 hours post dose) and 15% in the data set on serum iron levels [4] (24 hours post dose). Moreover, the lethargy entry in data set [5] is listed as “No lethargy was observed”. In addition, the “average serum iron levels compared to vehicle and pre-dose levels” value in the data set on serum iron levels [6] (Sprague Dawley rats, 5, 25 and 50 mg/kg SC, all doses) is “significantly decreased”. Also, the “time of lowest serum iron level” value in the data set with serum iron levels [6] (Sprague Dawley rats, post dose, all three doses) stood at 4 h. Moreover, the “serum iron levels compared to vehicle” value in the data set on serum iron levels [7] (mice, 50 μg and 100 μg doses, 24 hours post dose) is given as “elevated”; in the data set on serum iron levels [7] (mice, 50, 100 and 200 μg subcutaneously (all three doses), 4 hours post dose), “significant decrease in serum iron levels”. The mortality result with serum iron levels [7] (mice, following the 4-hour blood collection, likely related to the stress of the blood collection) was “One mouse died”.
